Here are results for twelve molecules from patent US6613794B2, “Hydroxyindoles, their use as inhibitors of phosphodiesterase 4 and processes for their preparation” (Arzneimittelwerk Dresden GmbH, priority 1998, dated 2003).

The subject of data set [1] is LPS-induced TNFα release in human blood. Nature of the data set: LPS-induced TNFα release in human blood. It is filed as cell-based. The note with it: human blood diluted 1:5, LPS 10 μg/ml, 24 hours. The text has this: The stimulation of isolated leucocytes to cytokine release can take place in various ways. Lipopolysaccharides (LPSs) are a stimulus suitable for the investigation of TNFα release. LPS is a constituent of the bacterial cell walls and is released by killing the bacteria (antibiotics or immune system). LPS particularly stimulates the activity of the phagocytizing leucocytes (tissue macrophages, granulocytes, monocytes) and causes the infiltration of leucocytes from the blood stream into the affected tissue. A cytokine important for these mechanisms is TNFα, which is secreted in large amounts by the affected cells (the monocytes and macrophages are the main source) and initiates and maintains inflammation alongside other mediators.
For the investigation of the effect on LPS-induced TNFα release, human blood was obtained from various donors (inhibition of coagulation by means of citrate) and diluted 1:5 with RPMI 1640 cell culture medium. The test substances were added to the samples in various concentrations before the LPS challenge. […] After incubation of the test batches for 24 hours at 37° C. and under 5% CO2 in an incubator, the diluted blood was centrifuged and the TNFα concentration in the cell-free supernatant was measured by means of ELISA.

The subject of data set [2] is LPS-induced pulmonary neutrophil infiltration. Briefly: LPS-induced pulmonary neutrophil infiltration in ferrets. The format is in vivo. The settings on record: for inhibition of LPS-induced neutrophilia: powder with lactose, 2 hours before LPS. The method, then:
The inhibition of lipopolysaccharide (LSP)-induced pulmonary neutrophil infiltration by the substance is investigated in an in vivo test on male ferrets (0.6-2 kg). The experimental animals are anaesthetized with pentobarbital sodium (40 mg/kg of body weight i.p.), placed individually into a closed nebulization box of 5 l capacity and exposed to an ultrasonically nebulized aerosol of 0.01% strength LPS (lipopolysaccharide) solution (additionally 0.1% hydroxylamine in PBS) for 10 minutes. The aerosol is generated by a nebulizer driven with compressed air (0.2 Mpa). Control animals are treated with an aerosol of physiological saline solution. The animals are observed during the entire process and removed from the nebulization box after admission of fresh air. On inhalation, nebulized LPS immediately induces inflammation of the airways, which is characterized by a massive infiltration of neutrophilic granulocytes into the lungs of the experimental animals. The neutrophilia achieves its maximum 4 to 6 hours after LPS exposure. In order to be able to measure the number of infiltrated neutrophilic granulocytes, the animals are anaesthetized with an overdose of ethylurethane (1.5 g/kg of body weight i.p.) 6 hours after LPS provocation and a bronchoalveolar lavage (BAL) is carried out using 2×10 ml of physiological saline solution. The number of cells in the pooled original BAL fluid (100 μl) are determined using the automatic cell-counting apparatus sold by Bayer Diagnostic under the trade designation Technicon HIE and the different leucocytes per μl are differentiated. In each test, 2 control groups (nebulization with physiological saline solution or with LPS solution) are included. Substances having anti-inflammatory activity, particularly those which affect TNFα release or the function of the neutrophilic granulocytes, inhibit the infiltration of leucocytes. The inhibition of infiltration is determined by the comparison of the number of infiltrated neutrophils in untreated experimental animals (with and without LPS provocation).
For intrapulmonary administration, the trachea of the animals is opened under anaesthesia with 40 mg/kg i.p. of pentobarbital sodium, 3% strength, 1.3 ml/kg, a 7 cm-long PVC catheter is tied in and the test substances are administered intrapulmonarily in powder form (mixed with lactose to 20 mg/kg) by means of a syringe 2 hours before LPS provocation. The intrapulmonary administration of Example 1 in doses of 1, 3 and 10 mg/kg inhibits LPS-induced neutrophilia in a dose-dependent manner (43%, 65% and 100%).

Data set [3] concerns LPS-induced pulmonary neutrophilia. Briefly: LPS-induced pulmonary neutrophilia in domestic pigs. The settings on record: intrapulmonary administration of 10 mg/animal. The format is in vivo. The method, then:
Pulmonary neutrophilia can be induced with LPS in domestic pigs in a manner similar to that in the ferret. The animals are anaesthetized with pentobarbital 10 mg/kg i.v., and intubated. Using a bronchoscope, a partial bronchoalveolar lavage is carried out in order to determine the proportion of neutrophilic granulocytes under physiological conditions. The test substance is then administered and the animals inhale an ultrasonically nebulized aerosol of 0.03% strength LPS (lipopolysaccharide) solution (additionally 0.1% hydroxylamine in PBS) through the tracheal tube for 20 min. The inhaled LPS induces a reactive inflammation of the airways and neutrophilic granulocytes infiltrate on a huge scale. The neutrophilia achieves its maximum 4 to 6 hours after LPS exposure. After 6 hours, the bronchoalveolar lavage is repeated and the increase in the neutrophil count is determined arithmetically.

Regarding `CCCn1cc(C(=O)C(=O)Nc2c(Cl)cncc2Cl)c2cc(O)ccc21`, the melting point (usually the temperature, or range, at which the solid turns liquid) is 280 to 282 °C.

For `COc1ccc([C@]2(C#N)CC[C@@H](C(=O)O)CC2)cc1OC1CCCC1` [SB 207499, reference compound], half-maximal inhibition in data set [1] (IC50) was put at 7 µM.

`O=C(Nc1c(Cl)cncc1Cl)C(=O)c1cn(Cc2c(F)cccc2F)c2ccc(O)cc12` showed a melting point of 266 to 268 °C.

On to `COc1ccc(C(=O)Nc2c(Cl)cncc2Cl)cc1OC1CCCC1` [RPR-73401, reference compound], for which the “inhibition of neutrophilia in the BAL” value in data set [2] (1 mg/kg i.p.) was 49%.

`O=C(Nc1c(Cl)cccc1Cl)C(=O)c1cn(Cc2ccc(F)cc2)c2ccc(O)cc12` registered a melting point of 216 to 218 °C.

Consider `CC(C)n1cc(C(=O)C(=O)Nc2c(Cl)cncc2Cl)c2cc(O)ccc21`, for which the melting point fell in the range of 245 to 247 °C.

`O=C(Nc1c(Cl)cncc1Cl)C(=O)c1cn(CC2CCCC2)c2ccc(O)cc12`: the melting point is 246 to 248 °C.

For `O=C(Nc1c(Cl)cc(C(F)(F)F)cc1Cl)C(=O)c1cn(Cc2ccc(F)cc2)c2ccc(O)cc12`, the melting point lay in the range of 199 to 201 °C.

Regarding `O=C(Nc1c(Cl)cc(OC(F)(F)F)cc1Cl)C(=O)c1cn(Cc2ccc(F)cc2)c2ccc(O)cc12`, the melting point lay within 176 to 178 °C.

As to `COc1ccc(Cn2cc(C(=O)Nc3c(Cl)cncc3Cl)c3cc(O)ccc32)cc1`, the melting point fell in the range of 239 to 241 °C.

Turning to `O=C(Nc1c(Cl)cncc1Cl)C(=O)c1cn(Cc2ccc(F)cc2)c2cc(O)ccc12`, the melting point lay within 212 to 213 °C.

Consider `O=C(Nc1c(Cl)cncc1Cl)C(=O)c1cn(Cc2ccc(F)cc2)c2ccc(O)cc12` [Example 1, N-(3,5-Dichloropyridin-4-yl)-2-[1-(4-fluorobenzyl)-5-hydroxyindol-3-yl]-2-oxoacetamide], for which, in data set [1], the IC50 (as a rule, the point on the concentration scale where inhibition reaches its midpoint) came to 0.8 µM. The “inhibition of neutrophilia in the BAL” value was 18% in data set [2] (1 mg/kg i.p.), 64% in data set [2] (3 mg/kg i.p.) and 78% in data set [2] (10 mg/kg i.p.). In addition, the “inhibition of LPS-induced neutrophilia” value in data set [2] (1 mg/kg intrapulmonary) worked out at 43%; in data set [2] (3 mg/kg intrapulmonary), 65%; in data set [2] (10 mg/kg intrapulmonary), 100%. For the same molecule, in data set [2] (i.p., 2 hours before LPS provocation), the “ID50, inhibition of LPS-induced neutrophilia in BAL” value worked out at 2.4 mg/kg. In data set [2] (intrapulmonary administration (printed i.palm.)), the “ID50, inhibition of LPS-induced neutrophilia” value was 1.65 mg/kg. Besides, in data set [3], the “inhibition of LPS-induced pulmonary neutrophilia” value came out at 51%.
